From patent publication US8344028B2, “Gamma-amino-butyric acid derivatives as GABAB receptor ligands” (XenoPort, Inc., priority 2009, dated 2013)

Legend:
GABAB receptor [1] = target: GABAB receptor (Homo sapiens, UniProt Q9UBS5); assay: GABAB receptor agonist or partial agonist activity by binding, electrophysiology, cAMP and/or Ca2+ assay methods (Examples 83-86); format: cell-based
Method in brief: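 Binding: rat cortex membranes in 50 mM Tris pH 7.4 with 100 μM isoguvacine were preincubated 10 min at RT with compound, then radiolabeled CGP54626 (1-10 nM) was added; filtered and scintillation-counted. cAMP: GABAB R1a2 HEK cells, 1 h RT with 100 μM forskolin, chemiluminescence.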

[2] = target: T1, recombinant human GABABR1a2 (Homo sapiens, UniProt Q9UBS5); assay: Ca2+ assay for determining GABAB receptor agonist activity; format: cell-based; details: cells expressing recombinant human GABABR1a2
T1 construct: expressed in transfected cells; host or cells: HEK cells
T1 sequence (Q9UBS5 15-961 limits assumed): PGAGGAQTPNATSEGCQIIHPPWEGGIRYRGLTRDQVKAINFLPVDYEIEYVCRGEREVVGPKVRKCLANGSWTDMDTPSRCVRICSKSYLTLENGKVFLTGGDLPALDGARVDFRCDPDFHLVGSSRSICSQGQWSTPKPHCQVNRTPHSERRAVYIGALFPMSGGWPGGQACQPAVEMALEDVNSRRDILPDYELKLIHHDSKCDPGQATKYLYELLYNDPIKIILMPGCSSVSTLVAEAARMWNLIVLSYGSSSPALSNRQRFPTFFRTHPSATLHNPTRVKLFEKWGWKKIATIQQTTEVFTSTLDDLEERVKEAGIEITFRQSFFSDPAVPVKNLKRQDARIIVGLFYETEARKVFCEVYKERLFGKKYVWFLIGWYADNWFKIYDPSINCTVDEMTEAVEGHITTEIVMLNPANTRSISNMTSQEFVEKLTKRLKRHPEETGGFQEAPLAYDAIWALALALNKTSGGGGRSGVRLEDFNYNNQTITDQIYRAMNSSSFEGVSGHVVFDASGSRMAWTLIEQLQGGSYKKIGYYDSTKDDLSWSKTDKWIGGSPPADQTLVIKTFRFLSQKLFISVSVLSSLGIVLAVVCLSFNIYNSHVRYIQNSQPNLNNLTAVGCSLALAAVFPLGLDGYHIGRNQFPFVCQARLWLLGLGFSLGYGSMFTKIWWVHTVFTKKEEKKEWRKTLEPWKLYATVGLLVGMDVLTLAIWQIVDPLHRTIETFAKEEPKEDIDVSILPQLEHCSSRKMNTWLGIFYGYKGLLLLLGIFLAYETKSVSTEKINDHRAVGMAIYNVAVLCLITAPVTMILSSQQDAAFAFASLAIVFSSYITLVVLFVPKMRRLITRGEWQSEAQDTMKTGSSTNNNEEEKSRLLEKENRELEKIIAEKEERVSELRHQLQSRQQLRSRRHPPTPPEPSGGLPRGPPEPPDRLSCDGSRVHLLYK
T1 sequence (O75899 42-941 partner): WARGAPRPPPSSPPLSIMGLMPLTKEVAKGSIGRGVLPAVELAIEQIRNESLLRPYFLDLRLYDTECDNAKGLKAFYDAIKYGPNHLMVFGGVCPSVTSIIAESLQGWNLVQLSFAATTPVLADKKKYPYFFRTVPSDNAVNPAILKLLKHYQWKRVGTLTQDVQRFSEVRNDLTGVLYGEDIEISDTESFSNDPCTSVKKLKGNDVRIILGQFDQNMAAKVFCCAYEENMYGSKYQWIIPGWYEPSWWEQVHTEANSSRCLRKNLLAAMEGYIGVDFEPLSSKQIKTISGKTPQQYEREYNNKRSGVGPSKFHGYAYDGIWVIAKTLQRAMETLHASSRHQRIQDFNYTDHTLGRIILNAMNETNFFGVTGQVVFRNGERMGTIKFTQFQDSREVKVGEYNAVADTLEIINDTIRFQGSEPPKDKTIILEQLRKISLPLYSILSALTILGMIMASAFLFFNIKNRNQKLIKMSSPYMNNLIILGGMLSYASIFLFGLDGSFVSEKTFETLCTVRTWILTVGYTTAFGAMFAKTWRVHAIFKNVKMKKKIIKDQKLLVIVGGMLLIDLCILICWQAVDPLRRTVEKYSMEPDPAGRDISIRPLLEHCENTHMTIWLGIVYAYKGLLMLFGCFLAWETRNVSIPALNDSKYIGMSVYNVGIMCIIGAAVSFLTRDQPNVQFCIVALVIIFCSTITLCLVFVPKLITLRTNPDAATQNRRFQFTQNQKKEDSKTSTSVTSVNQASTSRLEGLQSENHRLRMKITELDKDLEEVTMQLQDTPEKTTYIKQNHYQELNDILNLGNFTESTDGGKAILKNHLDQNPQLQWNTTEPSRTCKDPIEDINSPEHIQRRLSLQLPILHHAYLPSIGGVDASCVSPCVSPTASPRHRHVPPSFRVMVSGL
Experimental: The following procedure was used to determine the GABAB receptor agonist activity of a compound as reflected by activation of Ca^2+ signaling. HEK TREx cells expressing GABABR1a2 under tetracycline induction control, and Gqi chimeric protein (expressed constitutively), allowing GABABR coupling through the Ca^2+ signaling pathway were used in the experiments.
Cells were seeded in media containing tetracycline overnight at 100,000 cells/well, in black, clear-bottom, 96-well plates. The following morning, cells were washed twice with 100 μL HBSS buffer per well. Fluorescent Ca^2+ indicator dye was prepared using the materials and procedure described in the F362056 Fluo-4 NW Calcium Assay Kit (Invitrogen, Carlsbad, Calif.). Ten (10) mL of kit buffer and 100 μl of kit Probenecid were added to individual kit dye vials, and rolled back and forth several times to dissolve the dye. Cells were then loaded into the dye solution at 50 μL per well. The cells and dye were incubated for 30 min at 37° C., and then incubated for an additional 30 min at room temperature in the dark. Test compounds are dissolved in HBSS buffer at twice final concentration. Duplicate wells were used for each unique condition. Solution containing the test compound was added to the wells using a FLEXStation II (Molecular Devices, Sunnyvale, Calif.). Using the instrument in kinetic mode in which each well was read every 2 sec over a total collection time of 50 sec fluorescence was measured using an excitation wavelength 494 nm and a detection wavelength of 516 nm. A normalized fluorescence value for each well was calculated using the following procedure. The difference in fluorescence at 35 sec (usually representing maximal response) and at 15 sec (a time point prior to addition of test compounds) was calculated, divided by the fluorescence at 15 sec, and the result multiplied by 100. The final value represented the percent increase in fluorescence relative to the fluorescence at 15 sec. Data was analyzed using standard procedures.

[3] = target: T1, recombinant human GABABR1a2; assay: cAMP assay for determining GABAB receptor agonist activity; format: cell-based; details: cells expressing recombinant human GABABR1a2; read-out: cAMP EC50
Experimental: The following procedure was used to determine the level of intracellular cAMP. Recombinant HEK cells expressing the GABAB R1a2 receptor were used in the experiments. cAMP levels were measured using a cAMP XS^+ HitHunter™ Chemiluminescence Assay Kit (90-0075-02, GE Healthcare Biosciences Corp.). Cells were seeded overnight at 5,000 cells per well, in black, clear bottom 96-well plates. The following morning, cells were washed twice with 100 μL PBS per well. Forskolin was weighed out and dissolved in DMSO to a final concentration 100 mM. One-hundred (100) μM forskolin solutions were prepared in PBS with and without test compound at 1-times final concentration. Thirty (30) μL of the test solutions were added to the wells and incubated for 1 h at room temperature. The cAMP concentration was determined according to the protocol described in the cAMP assay kit, maintaining the plate at room temperature and in the dark. Two hours after the final kit reagent was added, the plate bottom was covered with black tape, and the plate read using a 1450 MicroBeta Trilux microplate scintillation and luminescence counter (PerkinElmer, Waltham, Mass.). Each well was read for 6 seconds. The untransformed data was then analyzed.

GABAB receptor [4] = target: T2, GABAB receptor (Rattus norvegicus, UniProt Q9Z0U4); assay: [3H]CGP54626 rat brain GABAB receptor binding assay; details: [3H]CGP54626 rat brain binding assay
T2 construct: from tissue; host or cells: rat cerebral cortex membranes
T2 sequence (Q9Z0U4 20-960): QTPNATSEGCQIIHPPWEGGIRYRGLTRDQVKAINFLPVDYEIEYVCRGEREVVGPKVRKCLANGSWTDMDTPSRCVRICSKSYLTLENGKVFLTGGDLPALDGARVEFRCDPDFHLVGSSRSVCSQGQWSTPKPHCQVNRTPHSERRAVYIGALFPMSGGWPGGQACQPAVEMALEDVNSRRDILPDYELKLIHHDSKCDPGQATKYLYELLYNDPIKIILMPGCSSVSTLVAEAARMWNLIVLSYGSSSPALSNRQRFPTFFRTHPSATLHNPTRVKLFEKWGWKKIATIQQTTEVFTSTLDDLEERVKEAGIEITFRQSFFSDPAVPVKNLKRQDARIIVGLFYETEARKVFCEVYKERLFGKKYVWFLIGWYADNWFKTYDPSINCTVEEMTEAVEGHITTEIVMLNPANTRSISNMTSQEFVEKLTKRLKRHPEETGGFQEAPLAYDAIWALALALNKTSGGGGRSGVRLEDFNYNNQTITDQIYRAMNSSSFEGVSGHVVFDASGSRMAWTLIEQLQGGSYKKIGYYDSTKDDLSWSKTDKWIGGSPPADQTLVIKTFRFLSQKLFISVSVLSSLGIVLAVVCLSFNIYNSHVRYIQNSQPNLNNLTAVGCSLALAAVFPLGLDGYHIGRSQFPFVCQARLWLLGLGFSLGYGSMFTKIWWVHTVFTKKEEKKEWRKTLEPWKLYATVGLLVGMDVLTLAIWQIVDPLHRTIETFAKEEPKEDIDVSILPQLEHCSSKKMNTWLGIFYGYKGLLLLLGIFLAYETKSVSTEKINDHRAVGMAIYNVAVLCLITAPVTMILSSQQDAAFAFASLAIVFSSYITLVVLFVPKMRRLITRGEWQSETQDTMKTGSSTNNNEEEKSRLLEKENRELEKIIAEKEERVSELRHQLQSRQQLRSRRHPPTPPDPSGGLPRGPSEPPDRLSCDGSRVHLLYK
T2 sequence (O88871 41-940 partner): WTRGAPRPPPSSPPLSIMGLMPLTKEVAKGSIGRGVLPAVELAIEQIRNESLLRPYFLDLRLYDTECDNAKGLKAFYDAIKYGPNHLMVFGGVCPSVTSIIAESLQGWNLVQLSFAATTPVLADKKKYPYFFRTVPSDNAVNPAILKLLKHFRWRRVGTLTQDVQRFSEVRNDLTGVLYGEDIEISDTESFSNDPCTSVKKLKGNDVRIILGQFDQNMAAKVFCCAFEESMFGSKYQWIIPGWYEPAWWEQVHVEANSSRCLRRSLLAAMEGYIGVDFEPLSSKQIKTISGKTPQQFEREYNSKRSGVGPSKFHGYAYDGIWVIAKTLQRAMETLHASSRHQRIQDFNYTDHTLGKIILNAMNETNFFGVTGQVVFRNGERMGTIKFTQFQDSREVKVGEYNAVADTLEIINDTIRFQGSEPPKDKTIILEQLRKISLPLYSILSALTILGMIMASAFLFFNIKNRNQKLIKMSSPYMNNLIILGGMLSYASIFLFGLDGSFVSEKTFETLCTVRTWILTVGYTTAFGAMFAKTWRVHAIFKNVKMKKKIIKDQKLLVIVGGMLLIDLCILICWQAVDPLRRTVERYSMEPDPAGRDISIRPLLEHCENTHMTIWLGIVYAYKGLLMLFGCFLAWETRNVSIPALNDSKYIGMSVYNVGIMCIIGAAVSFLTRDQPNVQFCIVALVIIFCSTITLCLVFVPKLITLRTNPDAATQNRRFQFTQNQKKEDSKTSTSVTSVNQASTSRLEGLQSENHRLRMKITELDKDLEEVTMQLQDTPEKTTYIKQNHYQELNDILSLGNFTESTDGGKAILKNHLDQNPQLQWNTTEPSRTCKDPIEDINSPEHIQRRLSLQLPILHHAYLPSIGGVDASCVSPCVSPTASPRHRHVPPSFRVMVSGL
Experimental: An assay using rat cerebral cortex membranes was used to determine the affinity of GABAB receptor ligands for the GABAB receptor.
An assay buffer of 50 mM Tris pH 7.4 was prepared with 100 μM of isoguvacine, to block GABAA interactions. The assay buffer with isoguvacine was used for dilution of membranes, compounds, and radiolabel.
Rat cerebral cortex membranes were diluted in assay buffer at 1 mg/mL and aliquoted into a 96-well plate at 900 μL/well. Buffer or test compound were added at 20-times final concentration in the buffer at 50 μL/well. Membranes and test compounds or buffer were incubated for 10 min. at room temperature. Radiolableled [S—(R*,R*)]-[3-[[1-(3,4-dichlorophenyl)ethyl]amino]-2-hydroxypropyl](cyclohexylmethyl) phosphinic acid (CGP54626) was then added at 50 μL/well in the buffer at 1-10 nM concentration in 50 μl. The mixture was incubated for 15 min. at room temperature. The assay mixture was filtered using Brandell filtration apparatus and GFB filters, washed twice with 3 mL of 4° C., 50 mM Tris pH 7.4, buffer without isoguvacine. The filters were then dried at room temperature and the dried filters punched out and placed in individual vials. Three (3) mL of scintillation fluid was added to each vial and the radiolabel counted on the scintillation counter. The inverse amount of radiolabel was indicative of binding of a test compound to the GABAB receptor.

GABAB receptor (Homo sapiens, UniProt Q9UBS5), sequence (Q9UBS5 20-961): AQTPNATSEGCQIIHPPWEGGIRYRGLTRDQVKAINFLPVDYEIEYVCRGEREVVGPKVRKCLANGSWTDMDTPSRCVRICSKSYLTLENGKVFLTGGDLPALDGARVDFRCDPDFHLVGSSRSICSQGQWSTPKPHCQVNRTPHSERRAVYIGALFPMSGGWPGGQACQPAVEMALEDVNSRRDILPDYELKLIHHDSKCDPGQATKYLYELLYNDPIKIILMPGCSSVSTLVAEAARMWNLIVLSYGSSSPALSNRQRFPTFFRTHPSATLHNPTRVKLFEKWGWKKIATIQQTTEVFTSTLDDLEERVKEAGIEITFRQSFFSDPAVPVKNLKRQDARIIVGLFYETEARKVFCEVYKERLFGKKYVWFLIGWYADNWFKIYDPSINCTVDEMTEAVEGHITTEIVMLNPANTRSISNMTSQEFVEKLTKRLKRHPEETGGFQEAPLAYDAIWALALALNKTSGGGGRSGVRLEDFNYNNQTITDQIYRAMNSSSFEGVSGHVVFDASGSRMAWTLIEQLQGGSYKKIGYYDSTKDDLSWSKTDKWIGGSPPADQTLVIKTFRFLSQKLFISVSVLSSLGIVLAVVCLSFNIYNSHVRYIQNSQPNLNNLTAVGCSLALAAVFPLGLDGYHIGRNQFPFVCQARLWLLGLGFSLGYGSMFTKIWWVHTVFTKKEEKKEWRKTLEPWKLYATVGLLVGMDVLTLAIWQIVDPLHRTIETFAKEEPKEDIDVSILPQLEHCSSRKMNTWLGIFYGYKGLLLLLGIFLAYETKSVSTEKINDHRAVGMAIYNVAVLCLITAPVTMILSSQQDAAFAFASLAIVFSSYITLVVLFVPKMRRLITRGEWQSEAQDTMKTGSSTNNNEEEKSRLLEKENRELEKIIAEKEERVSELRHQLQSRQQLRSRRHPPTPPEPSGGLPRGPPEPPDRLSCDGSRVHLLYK
GABAB receptor (Homo sapiens, UniProt Q9UBS5), sequence (O75899 42-941 partner): as the sequence (O75899 42-941 partner) above

| SMILES | GABAB receptor agonist or partial agonist activity (GABAB receptor [1]) | EC50 [2] [nM] | EC50 [3] [nM] | IC50 (GABAB receptor [4]) [nM] |
| --- | --- | --- | --- | --- |
| Cl.NC[C@H](CC(=O)O)c1ccc(Cl)c(OCc2cccnc2)c1 [(3R)-4-amino-3-[4-chloro-3-(3-pyridylmethoxy)phenyl]butanoic acid hydrochloride] | agonist or partial agonist activity | < 700 | < 100 | < 25000 |
| Cl.NC[C@H](CC(=O)O)c1ccc(Cl)c(-c2cc(F)cc(C(=O)O)c2)c1 [Example 50, 3-{5-[(1R)-2-Amino-1-(carboxymethyl)ethyl]-2-chlorophenyl}-5-fluorobenzoic acid hydrochloride] | agonist or partial agonist activity | < 700 | < 100 | < 25000 |
| Cl.NC[C@H](CC(=O)O)c1ccc(Cl)c(-c2cccc(C(=O)O)c2)c1 [Example 25, 3-{5-[(1R)-2-Amino-1-(carboxymethyl)ethyl]-2-chlorophenyl}benzoic acid hydrochloride] | agonist or partial agonist activity | < 700 | < 100 | < 25000 |
| Cl.NC[C@H](CC(=O)O)c1ccc(Cl)c(CCc2ccncc2)c1 [(3R)-4-amino-3-[4-chloro-3-(2-(4-pyridyl)ethyl)phenyl]butanoic acid hydrochloride] | agonist or partial agonist activity | < 700 | < 100 | < 25000 |
| Cl.NC[C@H](CC(=O)O)c1ccc(Cl)c(-c2ccc(F)c(C(=O)O)c2)c1 [5-{5-[(1R)-2-amino-1-(carboxymethyl)ethyl]-2-chlorophenyl}-2-fluorobenzoic acid hydrochloride] | agonist or partial agonist activity | < 700 | < 100 | < 25000 |
| Cl.NC[C@H](CC(=O)O)c1ccc(Cl)c(-c2cccnc2)c1 [Example 32, (3R)-4-Amino-3-(4-chloro-3-(3-pyridyl)phenyl)butanoic acid hydrochloride] | agonist or partial agonist activity | < 700 | < 100 | < 25000 |
| Cl.N#Cc1ccc(Cl)c(-c2cc([C@H](CN)CC(=O)O)ccc2Cl)c1 [(3R)-4-amino-3-[4-chloro-3-(6-chloro-3-cyanophenyl)phenyl]butanoic acid hydrochloride] | agonist or partial agonist activity | < 700 | < 100 | < 25000 |

Next, values leading:

| GABAB receptor agonist or partial agonist activity (GABAB receptor [1]) | EC50 [2] [nM] | EC50 [3] [nM] | IC50 (GABAB receptor [4]) [nM] | SMILES |
| --- | --- | --- | --- | --- |
| agonist or partial agonist activity | < 700 | < 100 | < 25000 | Cc1ccc(C#N)cc1-c1cc([C@H](CN)CC(=O)O)ccc1Cl.Cl [(3R)-4-amino-3-[4-chloro-3-(3-cyano-6-methylphenyl)phenyl]butanoic acid hydrochloride] |
| agonist or partial agonist activity | < 700 | < 100 | < 25000 | Cl.NC[C@H](CC(=O)O)c1ccc(Cl)c(-c2cc(C(=O)O)ccc2Cl)c1 [Example 46, 3-{5-[(1R)-2-Amino-1-(carboxymethyl)ethyl]-2-chlorophenyl}-4-chlorobenzoic acid hydrochloride] |
| agonist or partial agonist activity | < 700 | < 100 | < 25000 | Cl.NC[C@H](CC(=O)O)c1ccc(Cl)c(-c2cccc(C(N)=O)c2)c1 [Example 52, (3R)-4-Amino-3-[3-(3-carbamoylphenyl)-4-chlorophenyl]butanoic acid hydrochloride] |
| agonist or partial agonist activity | < 700 | < 100 | < 25000 | Cl.N#Cc1ccc(F)c(-c2cc([C@H](CN)CC(=O)O)ccc2Cl)c1 [(3R)-4-amino-3-[4-chloro-3-(3-cyano-6-fluorophenyl)phenyl]butanoic acid hydrochloride] |
| agonist or partial agonist activity | < 700 | < 100 | < 25000 | Cl.NC[C@H](CC(=O)O)c1ccc(Cl)c(NCc2cnc[nH]2)c1 [Example 60, (3R)-4-Amino-3-{4-chloro-3-[(imidazol-5-ylmethyl)amino]phenyl}butanoic acid hydrochloride] |
| agonist or partial agonist activity | < 700 | < 100 | < 25000 | Cl.NC[C@H](CC(=O)O)c1ccc(Cl)c(NCc2ccncc2)c1 [Example 57, (3R)-4-Amino-3-{4-chloro-3-[(4-pyridylmethyl)amino]phenyl}butanoic acid hydrochloride] |
| agonist or partial agonist activity | < 700 | < 100 | < 25000 | Cl.NC[C@H](CC(=O)O)c1ccc(Cl)c(-c2ccc(C(=O)O)s2)c1 [Example 67, 5-{5-[(1R)-2-Amino-1-(carboxymethyl)ethyl]-2-chlorophenyl}thiophene-2-carboxylic acid hydrochloride] |
| agonist or partial agonist activity | < 700 | < 100 | < 25000 | Cl.N#Cc1cccc(-c2cc([C@H](CN)CC(=O)O)ccc2Cl)c1 [Example 33, (3R)-4-Amino-3-[4-chloro-3-(3-cyanophenyl)phenyl]butanoic acid hydrochloride] |
| agonist or partial agonist activity | < 700 | < 100 | < 25000 | Cc1ccncc1-c1cc([C@H](CN)CC(=O)O)ccc1Cl.Cl [(3R)-4-amino-3-[4-chloro-3-(4-methyl(3-pyridyl))phenyl]butanoic acid hydrochloride] |
| agonist or partial agonist activity | < 700 | < 100 | < 25000 | Cl.NC[C@H](CC(=O)O)c1ccc(Cl)c(-c2cccc([N+](=O)[O-])c2)c1 [Example 37, (3R)-4-Amino-3-[4-chloro-3-(3-nitrophenyl)phenyl]butanoic acid hydrochloride] |
| agonist or partial agonist activity | < 700 | < 100 | < 25000 | Cl.NC[C@H](CC(=O)O)c1ccc(Cl)c(-c2csc(C(=O)O)c2)c1 [Example 27, 4-{5-[(1R)-2-Amino-1-(carboxymethyl)ethyl]-2-chlorophenyl}thiophene-2-carboxylic acid hydrochloride] |
